From US20080269173A1, “Composition for Stimulating Growth of Dermal Papilla Cells and Promoting Hair Follicle Growth Comprising Vitamin C Derivatives” (Trichogene Inc., priority 2005, published 2008)

Key:
human dermal fibroblast = details: Hata et al., 1988; cited from earlier work
osteoblast = details: Hata et al., 1988; cited from earlier work
[1] = aqueous solution, general culture conditions; cited from earlier work
dermal papilla cells [2] = test: RT-PCR gene expression (mRNA) in dermal papilla cells; type: cell-based, human; details: 0.25 mM, 5 days
Experimental: The dermal papilla cells were incubated for 5 days in a medium including 0.25 mM Asc 2-P, and then their RNA was isolated using a TRIzol reagent (Gibco-BRL, Grand Island, N.Y.). cDNA was synthesized from the RNA using a cDNA synthesis kit containing superscript II reverse transcriptase and random hexamer (Gibco-BRL). The cDNA was amplified with sets of gene-specific primers (Table 1).
Gene expression levels of IGF-1 (insulin like growth factor 1), HGF (hepatocyte growth factor), VEGF (vascular endothelial growth factor), KGF (keratinocyte growth factor), collagen I, collagen III, versican and alkaline phosphatase (ALP) were analyzed in the present invention.

dermal papilla cells [3] = test: Growth of cultured dermal papilla cells (MTT method); type: cell-based, human; details: 0.25 mM, 5 days
Experimental: The dermal papilla was isolated from a bulb of the severed hair follicles under the binocular microscope, and then transferred into a tissue culture dish. The dermal papilla was cultured at 37° C. for 5 days under a 5% CO2 atmosphere in the DMEM medium supplemented with penicillin (100 U/ml), streptomycin (100 μg/ml) and 20% heat-inactivated fetal bovine serum (FBS, Hyclone, USA), and then subcultured in the same condition. The dermal papilla cells were kept in the DMEM including 10% FBS after the subculture. The secondary subcultured cells were used in the present invention.
The dermal papilla cells were incubated overnight at a density of 5,000 cells/well in a 96-well plate containing a DMEM medium supplemented with 10% FBS. The medium was then exchanged to the DMEMs including varied concentrations of Asc 2-P and incubated for 5 days, and then the cell number was measured using a MTT method.

[4] = tested on: versican in the hair follicle; test: Immunostaining of versican in hair follicle; type: cell-based, human; details: 0.1 mM and 1 mM, 5 days
Experimental: The hair follicles were incubated for 5 days in the media treated with 0.1 mM and 1 mM Asc 2-P, and then their immunostaining experiments were conducted against versican.

[5] = tested on: human anagen hair follicle; test: In vitro growth of isolated human anagen hair follicles (organ culture, length measurement); type: cell-based; details: 0.05 mM and 0.25 mM, 9 days, Williams E medium; P<0.05
Experimental: Biopsy samples were obtained from a […] region of scalp of a patient with androgenic alopecia during the hair transplantation operation with their approval in the Kyungpook National University hospital. The hair follicles were isolated and incubated according to the known method (Philpott et al., J Cell Sci. 97:463-471, 1990).
The anagen hair follicles were isolated from the scalp under a stereoscopic binocular microscope. Upper one third of the isolated anagen hair follicles were cut out, and lower two third of them were incubated at 37° C. in a Williams E medium (Sigma, USA) under a 5% CO2 atmosphere. The hair follicles were incubated for 9 days in a medium including Asc 2-P, and then their length was measured using a stereoscopic microscope.

Row | SMILES | growth of human dermal fibroblast (human dermal fibroblast) | growth of osteoblast (osteoblast) | stability [1] | HGF mRNA (dermal papilla cells [2]) | IGF-1 mRNA (dermal papilla cells [2]) | KGF mRNA (dermal papilla cells [2]) | VEGF mRNA (dermal papilla cells [2]) | alkaline phosphatase (ALP) mRNA (dermal papilla cells [2]) | collagen I mRNA (dermal papilla cells [2]) | collagen III mRNA (dermal papilla cells [2]) | versican mRNA (dermal papilla cells [2]) | growth of dermal papilla cells (cell number, MTT) (dermal papilla cells [3]; 0.05 mM, 1 mM and 5 mM, P<0.05) | growth of dermal papilla cells relative to the control group (dermal papilla cells [3]; MTT) | expression of versican in the hair follicle (immunostaining) [4] | growth (length) of hair follicle [5]
1 | O=C1O[C@H]([C@@H](O)CO)C(O)=C1O [vitamin C, L-ascorbic acid] | stimulates growth | stimulates growth | rapidly oxidized and degraded |  |  |  |  |  |  |  |  |  |  |  | 
2 | O=C1O[C@H]([C@@H](O)CO)C(O)=C1OP(=O)(O)O [Asc 2-P, L-ascorbic acid-2-phosphate magnesium] | stimulates growth | stimulates growth | more stable than the vitamin C | no effect | increased | no effect | no effect | increased | no effect | no effect | increased | significantly stimulated growth | 2.4 times | increased | significantly grown
